Patent publication US20210106703A1, “RADIOIMMUNOCONJUGATES IN COMBINATION WITH OTHER DRUGS AS TREATMENT AGAINST NHL” (Nordic Nanovector ASA, priority 2017, published 2021)
Entries after “also recorded” stand apart in the source; their conditions may differ.

Legend:
Type in all cases: cell-based, human
U-2932 cells [1] = experiment: Real Time Glo viability screen and validation, Betalutin with PARP or cell cycle kinase inhibitors (Examples 4, 7); conditions: for BLISS analysis, combination with Betalutin versus expected additive effect: U-2932, significant = more than twice the SD of Betalutin alone
Experimental: (§1) DLBCL cell lines U2932 and RIVA were maintained in RPMI 1640-GlutaMAX medium (Gibco) supplemented with 15% fetal bovine serum (Biowest) and 1% penicillin-streptomycin (Gibco) at 37° C. in a humidified atmosphere containing 5% CO2. Cells were split twice a week 1:7 and diluted 2-4 days before start of the experiment, to ensure they are in exponential growth at the beginning of the experiment.
(§2) Cells were treated in 6-well plates without shaking for 18 h with Betalutin at a final concentration of 1 μg/ml for U2932 and 0.5 μg/ml for RIVA. After treatment, PBS was added to the cells, and the cells pelleted. Cells were first resuspended in 1 ml PBS, then washed twice in PBS and finally diluted in growth medium to a final concentration of 2.5*10^6 cells/ml.
(§3) Cells density measurements were performed the day before seeding. Based on these measurements cells were seeded in 384-well plates at a density of 3000 cells per well in a culturing volume of 25 μl (resulting in start titers: 120 000 cells/ml) using a robot. For measuring viability using Real Time Glo (Promega, WI, USA), the Cell Viability Substrate and NanoLuc® Enzyme were diluted 1:500 in growth medium, and 25 μL of diluted reagents dispensed in each well by a robot. All reagents were equilibrated to 37° C. Cells were incubated with the reaction mix for 1 h at 37° C. before the first measurement of luminescence. Measurements were repeated as often as required within 72 h after adding the reagents. A Tecan SPARK 10M plate reader (Tecan, SUI) was used to measure luminescence, with the integration time set to 1 sec.
(§4) The screen was performed in 384-well plate with selected PARP inhibitors (stock solutions 10 mM in DMSO) acquired from SelleckChem (Selleckchem, TX, USA). To include no-drug controls, the drug panel (Table 6) was divided on two plates. Due to previous observations of cells growing poorly in wells located at the edges of the plates, the two outer most rows and columns were not used. As previously mentioned three different drug concentrations were used in the screen, 10 nM and 1 μM for U2932 and 10 and 100 nM for RIVA.
(§5) Candidate hits were identified using the Bliss Independence test for synergy. The effect of each drug alone at each concentration was calculated as the fraction of dead cells as compared to control cells Fa=(1−(RLUdrug/avgRLUcontrol), a similar calculation was performed for the effect of Betalutin alone Fb=(1−(avgRLUBetalutin/avgRLUcontrol). Through the following equation we found the expected additive effect of the combination of drug+Betalutin: Expected effect (E)Fab=(Fa+Fb−Fa*Fb). We subtracted this expected effect from the measured effect (M)Fab=(1−(RLUDrug+Betalutin/avgRLUcontrol) to get a value (Diff)Fab representing how the measured effect differed from the expected additive effect of the combination. This value was normalized to the survival fraction of drug alone: (Diff)Fab#=(Diff)Fab/(1−Fa). Furthermore, to get a measure of how big the well-to-well variation was, we calculated the standard deviation for the effect of Betalutin alone in the 48 control wells on each plate: (STDEV)Fb=(RLUBetalutin/RLUcontrol)−(averageRLUBetalutin/averageRLUcontrol). Drugs with a value (Diff)Fab#two times higher than the standard deviation of Betalutin treated controls, (STDEV)Fb, were scored as hits.
as §3, with “Measurements were repeated as often as required within 72 h after adding the reagents. A Tecan SPARK 10M plate reader (Tecan, SUI) was used to measure luminescence, with the integration time set to 1 sec.” left out

RIVA cells = experiment: Real Time Glo viability screen, Betalutin with PARP or cell cycle kinase inhibitors (Examples 4, 7); conditions: for BLISS analysis, combination with Betalutin versus expected additive effect: significant = more than twice the SD of Betalutin alone
Experimental: as §1, §2, §3, §4, §5
as §3, with “Measurements were repeated as often as required within 72 h after adding the reagents. A Tecan SPARK 10M plate reader (Tecan, SUI) was used to measure luminescence, with the integration time set to 1 sec.” left out

U-2932 cells [2] = experiment: Real Time Glo viability screen and validation, Betalutin with PARP or cell cycle kinase inhibitors (Examples 4, 7); conditions: for Effect of monotreatment on proliferation: U-2932, validation screen, 0-1280 nM
Rec-1 cells [3] = experiment: Cell cycle analysis (PI, Muse flow cytometer); conditions: Rec-1, 6 MBq/mL, at 24 h
Experimental: (§6) Cells were harvested at day 0, 2 h, 18 h, 1 d, 2 d, 3 d, of RIT then fixed in 70% ethanol at −20° C. for 3 hours and stained with Cell Cycle kit (with PI) reagent from Merck Millipore in the dark for 30 min at room temperature before analysis using a Muse® flow cytometer. The percentage of cells in G0/G1, S and G2/M phases was then calculated (mean of three experiments in triplicate).
(§7) At different times after start of incubation, proteins were extracted to measure the CDK1 phosphorylation levels, in parallel, proliferation was determined and at 18 h and 24 h after start of incubation, the percentage of cells in G2/M was assessed (experiments were performed three time except the cell cycle analysis).
(§8) Cells were harvested at 0 h, 2 h, 18 h, 1 d, 2 d, 3 d, and fixed in 70% ethanol at −20° C. for at least 3 h. After staining with the Muse® Cell Cycle Assay Kit (Merck Millipore, Molsheim, France) using propidium iodide in the dark at room temperature for 30 min, cell cycle distribution was analyzed using a Muse® flow cytometer. The percentage of cells in the G0/G1, S and G2/M was calculated (mean of three experiments in triplicate) and the effect of WEE-1 and MYT-1 kinase inhibitors on the cell cycle was assessed.

DOHH2 cells [4] = experiment: Cell cycle analysis (PI, Muse flow cytometer); conditions: DOHH2, 6 MBq/mL, at 24 h
Experimental: as §6, §7, §8

Ramos cells [5] = experiment: Cell cycle analysis (PI, Muse flow cytometer); conditions: 6 MBq/mL, at 24 h
Experimental: as §6, §7, §8

Rec-1 cells [6] = experiment: Apoptosis induction (Annexin V/7-AAD, Muse flow cytometer); conditions: Rec-1, 6 MBq/mL radiolabelled mAb for 18 h, peak time 72 h
Experimental: (§9) Cells were harvested at 0, 2 h, 18 h, 1 d, 2 d, 3 d of RIT. At each time point, apoptosis was detected with […] from Merck Millipore (Annexin V Kit with 7-AAD) in the dark for 30 min at room temperature before analysis using Muse® flow cytometer

DOHH2 cells [7] = experiment: as above; conditions: DOHH2, 6 MBq/mL radiolabelled mAb for 18 h, peak time 72 h
Experimental: as §9

Ramos cells [8] = experiment: as above; conditions: 6 MBq/mL radiolabelled mAb for 18 h, peak time 72 h
Experimental: as §9

[9] = test system: CD133 and CD44 at the DOHH2 cell surface; experiment: Expression of stem cell markers after RIT (flow cytometry); conditions: DOHH2, 6 MBq/mL for 18 h, up to 9 days post-RIT
Experimental: Cells were harvested at 0, 2 h, 18 h and each day from 1 d to 10 d of RIT. At each time point, cells were fixed with PFA 4% for 10 minutes, washed twice with PBS and sterilely stored in PBS at 4° C. Stem cell markers were detected with anti-CD133-FITC (clone: AC133, Milteniy) and anti-CD44-APC (clone: IM7, Merck Millipore). 0.5×10^6 cells were saturated for 1 h in PBS-BSA 0.5%. Next cells were centrifuged and incubated with anti-CD133-FITC (2 μL) and anti-CD44-APC (0.125 μg) for 1 h at room temperature in the dark. Finally, cells were rinsed twice and analysed using Gallios® flow cytometer (Beckman Coulter).
For a preliminary study, investigation of the expression of CD133 and CD44 at the surface of cells treated for 18 h with 6 MBq/mL ^177Lu-lilotomab and ^177Lu-rituximab was done.

[10] = U-2932, drug 1 μM + Betalutin 1 μg/ml
[11] = RIVA, drug 100 nM + Betalutin 0.5 μg/ml

| Molecule | Growth inhibitory effect, drug alone (U-2932 cells [1]; U-2932, drug 10 nM) | Growth inhibitory effect, drug combined with Betalutin (U-2932 cells [1]; [10]) | BLISS analysis, combination with Betalutin versus expected additive effect (U-2932 cells [1]) | Growth inhibitory effect, drug alone (RIVA cells; RIVA, drug 10 nM) | Growth inhibitory effect, drug combined with Betalutin (RIVA cells; [11]) | BLISS analysis, combination with Betalutin versus expected additive effect (RIVA cells; RIVA) | Effect of monotreatment on proliferation (U-2932 cells [2]) | other results |
| --- | --- | --- | --- | --- | --- | --- | --- | --- |
| CN(C)Cc1ccc(-c2nc3cccc4c3n2CCNC4=O)cc1 [AG-14361] | only a minor inhibitory effect; also recorded: no growth inhibitory effect | potentiated the proliferation inhibitory effect of Betalutin; also recorded: stronger growth inhibition than AG-14361 alone | strongest combinatory effect | only a minor inhibitory effect; also recorded: no growth inhibitory effect | potentiated the proliferation inhibitory effect of Betalutin; also recorded: stronger growth inhibition than AG-14361 alone | strongest combinatory effect | – | Growth inhibitory effect, drug combined with Betalutin (U-2932 cells [1]; U-2932, drug 10 nM + Betalutin 1 μg/ml): did not enhance the growth inhibitory effect of Betalutin; Growth inhibitory effect, drug alone (U-2932 cells [1]; U-2932, drug 1 μM): inhibited proliferation; Growth inhibitory effect, drug combined with Betalutin (RIVA cells; RIVA, drug 10 nM + Betalutin 0.5 μg/ml): did not enhance the growth inhibitory effect of Betalutin; Growth inhibitory effect, drug alone (RIVA cells; RIVA, drug 100 nM): inhibited proliferation |
| CC[C@@H]1C(=O)N(C)c2cnc(Nc3ccc(C(=O)NC4CCN(C)CC4)cc3OC)nc2N1C1CCCC1 [BI2536] | – | – | significance was only reached in U-2932 cells | – | – | significance was only reached in U-2932 cells | blocked proliferation almost completely at concentrations above 40 nM | Drug concentration at which synergism with Betalutin is evident (CI, Chou-Talalay) (U-2932 cells [2]; U-2932, Betalutin 0.5, 1 or 2 μg/ml, day 5): 40 nM; inhibition at 0.01 µM (U-2932 cells [1]; Homo sapiens, U2932, read-out: Inhibition of proliferation, drug alone): > 80%; inhibition at 0.01 µM (RIVA cells; Homo sapiens, read-out: Inhibition of proliferation, drug alone): > 80% |
| C[C@@H](Oc1cc(-n2cnc3ccc(CN4CCN(C)CC4)cc32)sc1C(N)=O)c1ccccc1C(F)(F)F [GSK461364] | less potency than BI2536 | – | significantly greater than the expected additive effect | less potency than BI2536 | – | significantly greater than the expected additive effect | blocked proliferation almost completely at concentrations above 40 nM | – |
| COc1cc(Nc2ncc3c(n2)-c2ccc(Cl)cc2C(c2c(F)cccc2OC)=NC3)ccc1C(=O)O [MLN8237] | insufficient to inhibit proliferation | enhanced | – | insufficient to inhibit proliferation | enhanced | significantly greater effect than the expected additive effect | impaired proliferation at concentrations up to 160 nM | inhibition at 1 µM (U-2932 cells [1]; Homo sapiens, U2932, 144 h, U-2932, drug 1 μM, day 6, read-out: Growth inhibition, drug alone): ~40%; inhibition at 0.1 µM (RIVA cells; Homo sapiens, 144 h, RIVA, drug 100 nM, day 6, read-out: Growth inhibition, drug alone): ~60% |
| CNCc1ccc(-c2[nH]c3cc(F)cc4c3c2CCNC4=O)cc1 [Rucaparib] | – | potentiated the proliferation inhibitory effect of Betalutin; also recorded: stronger growth inhibition than Betalutin alone | larger than the expected additive effect | – | potentiated the proliferation inhibitory effect of Betalutin; also recorded: stronger growth inhibition than Betalutin alone | larger than the expected additive effect | – | Growth inhibitory effect, drug alone (U-2932 cells [1]; U-2932, all tested concentrations (10 nM, 1 μM)): no growth inhibitory effect; Growth inhibitory effect, drug alone (RIVA cells; RIVA, all tested concentrations (10, 100 nM)): no growth inhibitory effect |
| ^177Lu-rituximab | – | – | – | – | – | – | – | Proportion of cells showing a G2/M cell cycle arrest (Rec-1 cells [3]): 40±11%; Proportion of cells showing a G2/M cell cycle arrest (DOHH2 cells [4]): 38±2%; Proportion of cells showing a G2/M cell cycle arrest (Ramos cells [5]): 56±13%; Apoptosis level (Rec-1 cells [6]): 79±16%; Apoptosis level (DOHH2 cells [7]): 97±3%; Apoptosis level (Ramos cells [8]): 56±12%; Proportion of cells expressing CD44 and CD133 [9]: strongly increased |
